In patent US20200009088A1, “COMPOSITIONS AND METHODS FOR TREATING ANDROGEN-INDEPENDENT CANCER” (The Regents of the University of California, priority 2017, published 2020):
Entries after “also recorded” stand apart in the source; their conditions may differ.

Experiments:
[1] = biological target: T1, wild-type AR (Homo sapiens, UniProt P10275); assay: AR transactivation luciferase assay in HEK 293 cells, wild-type AR; format: cell-based; settings: luciferase reporter, FIG. 5A
T1 construct: expressed in transfected cells; host or cells: HEK 293
Method: (§1) HEK 293 cells were transiently transfected with expression vectors encoding the corresponding mutant AR and an androgen-responsive luciferase reporter gene construct. […] Luciferase activity was then determined.

[2] = biological target: T2, AR-FL (Homo sapiens, UniProt P10275, T878A); assay: PSA-luc assay in C4-2B cells (pcDNA), AR-FL; format: cell-based; settings: FBS, 1 μM overnight, FIG. 14A
T2 construct: endogenous in cells; host or cells: C4-2B cells transfected with pcDNA and the PSA-E/P-luciferase reporter
Text: (§2) C4-2B cells were cotransfected with pcDNA, with or without AR-V1, AR-V3, AR-V7, AR-V9 or AR-V12, and with PSA-E/P-luciferase plasmids in FBS condition.

[3] = biological target: T3, AR-V7 (Homo sapiens, UniProt P10275); assay: Western blot of AR-V7 expression in CWR22Rv1 cell lysates; format: cell-based; parameters: endogenous in cells; host or cells: CWR22Rv1 prostate cancer cells (also grown as xenograft tumours); settings: CWR22Rv1 cells, FIG. 2A
T3 sequence (P10275 1-644 isoform P10275-3): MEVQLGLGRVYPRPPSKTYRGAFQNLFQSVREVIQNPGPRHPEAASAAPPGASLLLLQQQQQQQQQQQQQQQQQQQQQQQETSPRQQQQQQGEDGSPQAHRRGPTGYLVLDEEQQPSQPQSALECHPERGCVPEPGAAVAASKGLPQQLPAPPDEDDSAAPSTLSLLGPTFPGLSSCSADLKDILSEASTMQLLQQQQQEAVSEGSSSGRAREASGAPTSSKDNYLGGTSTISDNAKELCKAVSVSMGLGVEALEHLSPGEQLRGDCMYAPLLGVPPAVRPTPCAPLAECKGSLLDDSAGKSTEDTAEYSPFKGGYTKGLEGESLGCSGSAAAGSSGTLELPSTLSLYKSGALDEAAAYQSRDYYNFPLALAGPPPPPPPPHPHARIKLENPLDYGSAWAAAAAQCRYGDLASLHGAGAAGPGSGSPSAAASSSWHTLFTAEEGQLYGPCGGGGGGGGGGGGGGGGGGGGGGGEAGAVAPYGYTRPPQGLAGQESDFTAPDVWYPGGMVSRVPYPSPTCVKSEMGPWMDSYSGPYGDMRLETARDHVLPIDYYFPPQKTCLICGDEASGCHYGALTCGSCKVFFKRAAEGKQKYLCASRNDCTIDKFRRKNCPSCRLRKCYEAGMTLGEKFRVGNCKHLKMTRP
Method: (§3) “AR-Variants” represents a combination of all forms of AR.
The effects of the synthetic small molecule modulators on AR and AR variant expression were determined. CWR22Ry1 prostate cancer cells were treated with different compounds. Protein lysates were analyzed for AR and AR variant expression.

[4] = biological target: T4, AR-V1 (Homo sapiens, UniProt P10275); assay: PSA-luc assay in C4-2B cells, AR-V1; format: cell-based; settings: FBS, 1 μM overnight, FIG. 14B
T4 construct: expressed in transfected cells; host or cells: C4-2B
Text: as §2

[5] = biological target: T3, AR-V7; assay: PSA-luc reporter in LNCaP cells co-transfected with AR-V7; settings: LNCaP cells co-transfected with AR-V7, FIG. 4
Method: The luciferase activity was then determined. * denotes p<0.05.
In addition, the effects on AR transcriptional activity were determined using PSA-luc as a reporter. LNCaP cells were cotransfected with PSA-luc together with or without AR-V7, and treated with the compounds.

[6] = test system: PSA; assay: PSA protein expression by ELISA in C4-2 cells overexpressing AR-V7; format: cell-based; settings: C4-2-V7 cells, FIG. 3; for PSA expression: compound alone, ELISA; for enzalutamide-mediated PSA inhibition: in presence of enzalutamide (MDV)
Method: PSA protein expression was determined by ELISA assay. * denotes p<0.05.

[7] = biological target: T3, AR-V7; assay: AR transactivation luciferase assay in HEK 293 cells, AR-V7; format: cell-based; settings: luciferase reporter, FIG. 5B
Method: as §1

[8] = test system: C4-2B MDVR cells; assay: Cell growth assay (cell numbers), C4-2B MDVR; format: cell-based; settings: for cell proliferation, combination with enzalutamide (MDV) / cell growth: C4-2B MDVR, 48 hours; for cell proliferation, combination with enzalutamide (MDV): 0.5 μM + enzalutamide, FIG. 7B; for cell growth: increasing doses of niclosamide/analogs, FIG. 6
[9] = test system: C4-2-V7 cells; assay: Cell growth assay (cell numbers), C4-2-V7; format: cell-based; settings: C4-2-V7, 0.5 μM + enzalutamide, 48 hours, FIG. 7D
[10] = test system: AR-V3; assay: PSA-luc assay in C4-2B cells, AR-V3; format: cell-based; settings: FBS, 1 μM overnight, FIG. 14C
Text: as §2

[11] = biological target: T5, AR-V9 (Homo sapiens, UniProt P10275, DEL470-473/INS56QQQQQ/L57Q); assay: PSA-luc assay in C4-2B cells, AR-V9; format: cell-based; settings: FBS, 1 μM overnight, FIG. 14E
T5 construct: expressed in transfected cells; host or cells: C4-2B
Text: as §2

[12] = biological target: T6, V716M AR mutant (Homo sapiens, UniProt P10275, V716M); assay: AR transactivation luciferase assay in HEK 293 cells, V716M; format: cell-based; settings: luciferase reporter, FIG. 5E
T6 construct: expressed in transfected cells; host or cells: HEK 293
Method: as §1

[13] = test system: AR variants; assay: AR variant protein degradation (cycloheximide, MG132, ubiquitin IP) in CWR22Rv1 cells; format: cell-based; settings: FIG. 15
Method: as §3
To determine if the small molecule modulators affect AR-V7 protein expression via protein degradation, CWR22Rv1 and C4-2B MDVR cells were treated with cycloheximide (CHX) and the half-life of AR-V7 protein was measured.
After 0, 2, 4, and 8 hours, whole cell lysate was collected and subjected to Western blot. The half-life of AR-V7 was then calculated.
Subsequently, the whole cell lysate was collected and subjected to Western blot.
For the data shown in FIG. 15C, CWR22Rv1 cells were treated with Nic, Compound 7, or Compound 31. Subsequently, whole cell lysate was immunoprecipitated with an AR antibody and blotted with ubiquitin and AR antibodies.

[14] = biological target: T7, T878A AR mutant (Homo sapiens, UniProt P10275, T878A); assay: AR transactivation luciferase assay in HEK 293 cells, T878A; format: cell-based; settings: luciferase reporter, FIG. 5C
T7 construct: expressed in transfected cells; host or cells: HEK 293
Method: as §1

[15] = biological target: T3, AR-V7; assay: PSA-luc assay in C4-2B cells, AR-V7; format: cell-based; settings: FBS, 1 μM overnight, FIG. 14D
Text: as §2

[16] = test system: MCF-7 cells; assay: Breast cancer cell growth, MCF-7; format: cell-based; settings: three days, FIG. 20B
[17] = biological target: T8, AR-V12 (Homo sapiens, UniProt P10275); assay: PSA-luc assay in C4-2B cells, AR-V12; format: cell-based; settings: FBS, 1 μM overnight, FIG. 14F
T8 construct: expressed in transfected cells; host or cells: C4-2B
Text: as §2

[18] = test system: C4-2BMDVR cells; assay: ELISA cell death (apoptosis) assay; format: cell-based; settings: FIG. 8; for cell apoptosis: compound alone, analogs compared with niclosamide
Method: To further examine the anti-cancer effects of these compounds, an ELISA cell death assay was performed.

`O=C(Nc1ccc(C(F)(F)F)cc1Cl)c1cc(Cl)ccc1O` [Compound 7] was tested. Which “wild-type AR transactivation” value [1] did it give?
The value was “blocked”.

And the “AR-FL-mediated transcriptional activity (PSA-luc)” value [2]?
Its value is “inhibited”.

And the “AR-V7 (AR variant) expression” value [3]?
The value was “inhibited”.

And the “AR-V1-mediated PSA-luc activity” value [4]?
Its value is “inhibited”.

And the “AR-V7 mediated PSA-luc activity” value [5]?
Its value is “inhibited”.

What about the PSA expression [6] of the same compound?
Its PSA expression is “inhibited”.

And the “enzalutamide-mediated PSA inhibition” value [6]?
The value was “further enhanced”.

And the AR-V7 transactivation [7]?
Its AR-V7 transactivation is “significantly blocked”.

And the “cell proliferation, combination with enzalutamide (MDV)” value (“cell proliferation, combination” below) [8]?
The value was “further inhibited”.

And the cell growth [8]?
The cell growth was “able to inhibit cell growth in a dose-dependent manner”.

What about the “cell proliferation, combination” value [9] of the same compound?
The value was “further inhibited”.

And the “AR-V3-mediated PSA-luc activity” value [10]?
The value was “inhibited”.

And the “AR-V9-mediated PSA-luc activity” value [11]?
Its value is “inhibited”.

And the “V716M mutant AR transactivation” value [12]?
The value was “significantly blocked”.

What about the “AR variant degradation via the proteasome-ubiquitination system” value [13] of the same compound?
Its value is “degraded”.

And the “T878A mutant AR transactivation” value [14]?
Its value is “significantly blocked”.

And the “AR-V7-mediated PSA-luc activity” value [15]?
Its value is “inhibited”.

What about the “breast cancer cell growth” value [16] of the same compound?
The value was “inhibited”.

And the “AR-V12-mediated PSA-luc activity” value [17]?
Its value is “inhibited”.

What about the cell apoptosis [18] of the same compound?
The cell apoptosis was “further enhanced”.

What about the “apoptotic cell death, combination with enzalutamide (MDV)” value [18] of the same compound?
The value was “further increased”.

Which “wild-type AR transactivation” value [1] does the source give for `C=CC(=O)Oc1ccc(Cl)cc1C(=O)Nc1ccc([N+](=O)[O-])cc1Cl` [Compound 31] here?
The value was “blocked”.

What about the “AR-FL-mediated transcriptional activity (PSA-luc)” value [2] of the same compound?
The value was “inhibited”.

And the “AR-V7 (AR variant) expression” value [3]?
Its value is “inhibited”.

What about the “AR-V1-mediated PSA-luc activity” value [4] of the same compound?
The value was “inhibited”.

What about the “AR-V7 mediated PSA-luc activity” value [5] of the same compound?
Its value is “inhibited”.

And the PSA expression [6]?
The PSA expression was “inhibited; also recorded: strongest effect”.

And the “enzalutamide-mediated PSA inhibition” value [6]?
The value was “further enhanced”.

And the AR-V7 transactivation [7]?
The AR-V7 transactivation was “significantly blocked”.

What about the “cell proliferation, combination” value [8] of the same compound?
Its value is “further inhibited”.

What about the cell growth [8] of the same compound?
The cell growth was “able to inhibit cell growth in a dose-dependent manner”.

What about the “synergy with abiraterone in inhibiting cell growth” value ([8]; C4-2BMDVR, analog 0.25 μM + abiraterone 5 μM, FIG. 10) of the same compound?
Its value is “able to synergize”.

What about the “synergy with enzalutamide in inhibiting cell growth” value ([8]; C4-2BMDVR, analog 0.25 μM + enzalutamide 20 μM, FIG. 10) of the same compound?
The value was “able to synergize”.

What about the “cell proliferation, combination” value [9] of the same compound?
Its value is “further inhibited”.

What about the “AR-V3-mediated PSA-luc activity” value [10] of the same compound?
Its value is “inhibited”.

And the “AR-V9-mediated PSA-luc activity” value [11]?
Its value is “inhibited”.

What about the “V716M mutant AR transactivation” value [12] of the same compound?
The value was “significantly blocked”.

And the “AR variant degradation via the proteasome-ubiquitination system” value [13]?
The value was “degraded”.

And the “T878A mutant AR transactivation” value [14]?
Its value is “significantly blocked”.

And the “AR-V7-mediated PSA-luc activity” value [15]?
The value was “inhibited”.

And the “breast cancer cell growth” value [16]?
Its value is “inhibited”.

And the “AR-V12-mediated PSA-luc activity” value [17]?
The value was “inhibited”.

And the cell apoptosis [18]?
The cell apoptosis was “further enhanced”.

And the “apoptotic cell death, combination with enzalutamide (MDV)” value [18]?
Its value is “further increased”.
